Laboratory results reported in ChEMBL document CHEMBL5649166, “RIP3 induces apoptosis independent of pronecrotic kinase activity” (Mol Cell, 2014).
The source made the active and inactive calls. The calls are words filed in the database; no cut-off is given here.

How the values were obtained:
[1] = target: T1, Interleukin-1 receptor-associated kinase 4 (Homo sapiens) (UniProt Q9NWZ3); test: Inhibition of human IRAK4 using myelin basic protein as substrate at 1 uM in presence of 32P-ATP by Hotspot assay relative to control; values are per cent of control
T1 sequence (whole entry): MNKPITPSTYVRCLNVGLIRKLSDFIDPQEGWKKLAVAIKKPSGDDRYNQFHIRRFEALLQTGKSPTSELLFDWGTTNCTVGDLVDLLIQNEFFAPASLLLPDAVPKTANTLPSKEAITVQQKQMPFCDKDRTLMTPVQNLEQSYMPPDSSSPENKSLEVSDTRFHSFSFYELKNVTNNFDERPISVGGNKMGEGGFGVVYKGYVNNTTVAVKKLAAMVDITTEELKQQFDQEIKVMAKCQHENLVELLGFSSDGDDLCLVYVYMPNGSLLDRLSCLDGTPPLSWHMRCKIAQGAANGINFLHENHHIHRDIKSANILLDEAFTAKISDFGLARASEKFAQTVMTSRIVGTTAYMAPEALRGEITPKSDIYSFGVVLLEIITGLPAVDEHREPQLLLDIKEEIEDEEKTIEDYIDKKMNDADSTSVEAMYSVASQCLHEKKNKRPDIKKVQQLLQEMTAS

[2] = target: CDK4/Cyclin D3 (Homo sapiens) (UniProt P11802+P30281); test: Inhibition of human CDK4/cyclin D3 using RB-CTF as substrate at 1 uM in presence of 32P-ATP by Hotspot assay relative to control; values are per cent of control
[3] = target: Tyrosine-protein kinase receptor UFO (Homo sapiens) (UniProt P30530); test: Inhibition of human AXL using poly[Glu:Tyr] (4:1) as substrate at 1 uM in presence of 32P-ATP by Hotspot assay relative to control; values are per cent of control
[4] = test system: Peritoneal macrophage cell; test: Inhibition of TNF-alpha induced necroptosis in thioglycolate-elicited mouse peritoneal macrophage assessed as increase in cell viability at 0.04 to 1 uM incubated for 24 hrs in presence of zVAD and SMAC007 by Cell Titer-Glo luminescent cell viability assay; assay type: functional, cell-based; conditions: dose 0.04-1 µM
[5] = target: Receptor-interacting serine/threonine-protein kinase 2 (Homo sapiens) (UniProt O43353); test: Inhibition of human RIPK2 using myelin basic protein as substrate at 1 uM in presence of 32P-ATP by Hotspot assay relative to control; values are per cent of control
[6] = target: Serine/threonine-protein kinase PAK 1 (Homo sapiens) (UniProt Q13153); test: Inhibition of human PAK1 using RRRLSFAEPG as substrate at 1 uM in presence of 32P-ATP by Hotspot assay relative to control; values are per cent of control
[7] = target: Calcium/calmodulin-dependent protein kinase type II subunit delta (Homo sapiens) (UniProt Q13557); test: Inhibition of human CAMK2d using KKLNRTLSFAEPG as substrate at 1 uM in presence of 32P-ATP by Hotspot assay relative to control; values are per cent of control
[8] = target: SRSF protein kinase 2 (Homo sapiens) (UniProt P78362); test: Inhibition of human SRPK2 using GRSRSRSRSR as substrate at 1 uM in presence of 32P-ATP by Hotspot assay relative to control; values are per cent of control
[9] = target: Protein-tyrosine kinase 2-beta (Homo sapiens) (UniProt Q14289); test: Inhibition of human PYK2 using poly[Glu:Tyr] (4:1) as substrate at 1 uM in presence of 32P-ATP by Hotspot assay relative to control; values are per cent of control
[10] = target: Serine/threonine-protein kinase WNK2 (Homo sapiens) (UniProt Q9Y3S1); test: Inhibition of human WNK2 using myelin basic protein as substrate at 1 uM in presence of 32P-ATP by Hotspot assay relative to control; values are per cent of control
[11] = target: Protein kinase C beta type (Homo sapiens) (UniProt P05771); test: Inhibition of human PKCb2 using ERMRPRKRQGSVRRRV as substrate at 1 uM in presence of 32P-ATP by Hotspot assay relative to control; values are per cent of control
[12] = target: Ribosomal protein S6 kinase beta-1 (Homo sapiens) (UniProt P23443); test: Inhibition of human p70S6K/RPS6KB1 using KKRNRTLTK as substrate at 1 uM in presence of 32P-ATP by Hotspot assay relative to control; values are per cent of control
[13] = target: MAP/microtubule affinity-regulating kinase 3 (Homo sapiens) (UniProt P27448); test: Inhibition of human MARK3 using KKKVSRSGLYRSPSMPENLNRPR as substrate at 1 uM in presence of 32P-ATP by Hotspot assay relative to control; values are per cent of control
[14] = target: Mitogen-activated protein kinase 11 (Homo sapiens) (UniProt Q15759); test: Inhibition of human P38b/MAPK11 using myelin basic protein as substrate at 1 uM in presence of 32P-ATP by Hotspot assay relative to control; values are per cent of control
[15] = target: Glycogen synthase kinase-3 beta (Homo sapiens) (UniProt P49841); test: Inhibition of human GSK3b using YRRAAVPPSPSLSRHSSPHQ(pS)EDEEE as substrate at 1 uM in presence of 32P-ATP by Hotspot assay relative to control; values are per cent of control
Sequence of Glycogen synthase kinase-3 beta (Homo sapiens) (P49841 whole entry, looked up): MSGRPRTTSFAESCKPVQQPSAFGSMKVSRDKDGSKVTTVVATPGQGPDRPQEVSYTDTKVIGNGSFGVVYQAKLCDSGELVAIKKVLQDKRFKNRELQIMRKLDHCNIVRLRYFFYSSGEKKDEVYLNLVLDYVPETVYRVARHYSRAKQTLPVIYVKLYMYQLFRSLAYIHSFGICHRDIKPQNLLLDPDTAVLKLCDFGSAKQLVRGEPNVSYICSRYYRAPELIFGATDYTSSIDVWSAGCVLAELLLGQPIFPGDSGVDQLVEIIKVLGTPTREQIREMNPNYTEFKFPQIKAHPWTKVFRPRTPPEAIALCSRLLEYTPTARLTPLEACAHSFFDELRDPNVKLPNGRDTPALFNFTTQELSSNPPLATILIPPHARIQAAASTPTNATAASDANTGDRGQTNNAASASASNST

Sequence of Serine/threonine-protein kinase WNK2 (Homo sapiens) (Q9Y3S1 whole entry): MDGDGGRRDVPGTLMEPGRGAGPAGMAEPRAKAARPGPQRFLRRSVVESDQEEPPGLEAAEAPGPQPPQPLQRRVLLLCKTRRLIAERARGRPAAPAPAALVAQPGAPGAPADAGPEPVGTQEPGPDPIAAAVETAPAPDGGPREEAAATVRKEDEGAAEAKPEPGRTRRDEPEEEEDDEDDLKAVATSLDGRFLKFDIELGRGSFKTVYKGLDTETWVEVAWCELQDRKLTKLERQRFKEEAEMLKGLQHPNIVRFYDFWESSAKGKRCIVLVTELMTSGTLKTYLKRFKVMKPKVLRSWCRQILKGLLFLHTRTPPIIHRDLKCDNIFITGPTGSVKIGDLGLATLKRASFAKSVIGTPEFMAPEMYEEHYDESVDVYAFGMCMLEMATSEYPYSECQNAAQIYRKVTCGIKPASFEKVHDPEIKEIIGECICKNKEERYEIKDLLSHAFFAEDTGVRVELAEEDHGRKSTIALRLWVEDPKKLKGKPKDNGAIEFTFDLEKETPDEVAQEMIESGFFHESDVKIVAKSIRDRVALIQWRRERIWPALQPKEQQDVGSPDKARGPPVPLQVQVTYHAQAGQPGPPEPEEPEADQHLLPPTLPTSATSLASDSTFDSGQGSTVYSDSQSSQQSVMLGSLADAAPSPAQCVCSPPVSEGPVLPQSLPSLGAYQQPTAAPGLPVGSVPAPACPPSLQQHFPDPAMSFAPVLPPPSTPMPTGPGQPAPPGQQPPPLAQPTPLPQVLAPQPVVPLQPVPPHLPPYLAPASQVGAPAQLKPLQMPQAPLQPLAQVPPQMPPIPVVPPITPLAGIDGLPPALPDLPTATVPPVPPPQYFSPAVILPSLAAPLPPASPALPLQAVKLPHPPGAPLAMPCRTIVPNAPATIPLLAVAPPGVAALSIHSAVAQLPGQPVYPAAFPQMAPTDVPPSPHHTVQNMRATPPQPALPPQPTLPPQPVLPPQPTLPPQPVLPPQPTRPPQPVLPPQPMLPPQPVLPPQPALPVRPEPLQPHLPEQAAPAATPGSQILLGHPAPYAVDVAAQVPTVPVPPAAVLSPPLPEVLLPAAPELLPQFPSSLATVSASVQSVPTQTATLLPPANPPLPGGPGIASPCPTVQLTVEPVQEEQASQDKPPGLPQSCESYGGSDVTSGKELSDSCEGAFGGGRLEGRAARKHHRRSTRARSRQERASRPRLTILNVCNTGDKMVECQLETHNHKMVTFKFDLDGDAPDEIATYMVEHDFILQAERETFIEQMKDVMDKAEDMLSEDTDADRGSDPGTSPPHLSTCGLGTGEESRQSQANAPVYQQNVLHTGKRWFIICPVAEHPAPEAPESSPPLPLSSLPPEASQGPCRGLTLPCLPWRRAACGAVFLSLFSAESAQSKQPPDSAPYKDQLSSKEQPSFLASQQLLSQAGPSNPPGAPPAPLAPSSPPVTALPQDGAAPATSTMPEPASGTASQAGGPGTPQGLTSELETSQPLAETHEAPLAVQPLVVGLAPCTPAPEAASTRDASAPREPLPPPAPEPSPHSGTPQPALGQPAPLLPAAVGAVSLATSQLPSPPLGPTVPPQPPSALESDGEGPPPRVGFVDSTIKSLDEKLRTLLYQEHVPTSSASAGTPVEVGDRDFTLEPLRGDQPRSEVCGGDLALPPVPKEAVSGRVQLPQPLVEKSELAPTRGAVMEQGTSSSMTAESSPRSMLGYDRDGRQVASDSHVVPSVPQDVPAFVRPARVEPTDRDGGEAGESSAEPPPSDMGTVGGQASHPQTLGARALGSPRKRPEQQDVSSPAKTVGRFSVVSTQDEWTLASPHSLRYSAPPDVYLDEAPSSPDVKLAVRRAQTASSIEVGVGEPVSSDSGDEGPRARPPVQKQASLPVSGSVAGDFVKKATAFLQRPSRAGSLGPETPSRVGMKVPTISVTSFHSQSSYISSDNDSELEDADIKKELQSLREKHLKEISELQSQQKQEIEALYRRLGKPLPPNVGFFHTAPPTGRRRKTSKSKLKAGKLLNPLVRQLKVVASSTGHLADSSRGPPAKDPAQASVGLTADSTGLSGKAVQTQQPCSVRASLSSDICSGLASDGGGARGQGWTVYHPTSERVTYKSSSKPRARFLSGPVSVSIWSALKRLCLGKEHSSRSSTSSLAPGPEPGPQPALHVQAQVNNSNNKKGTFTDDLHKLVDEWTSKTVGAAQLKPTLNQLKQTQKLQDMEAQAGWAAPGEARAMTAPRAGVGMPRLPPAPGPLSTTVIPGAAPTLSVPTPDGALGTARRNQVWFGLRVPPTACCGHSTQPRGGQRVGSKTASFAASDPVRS
Sequence of Calcium/calmodulin-dependent protein kinase type II subunit delta (Homo sapiens) (Q13557 whole entry): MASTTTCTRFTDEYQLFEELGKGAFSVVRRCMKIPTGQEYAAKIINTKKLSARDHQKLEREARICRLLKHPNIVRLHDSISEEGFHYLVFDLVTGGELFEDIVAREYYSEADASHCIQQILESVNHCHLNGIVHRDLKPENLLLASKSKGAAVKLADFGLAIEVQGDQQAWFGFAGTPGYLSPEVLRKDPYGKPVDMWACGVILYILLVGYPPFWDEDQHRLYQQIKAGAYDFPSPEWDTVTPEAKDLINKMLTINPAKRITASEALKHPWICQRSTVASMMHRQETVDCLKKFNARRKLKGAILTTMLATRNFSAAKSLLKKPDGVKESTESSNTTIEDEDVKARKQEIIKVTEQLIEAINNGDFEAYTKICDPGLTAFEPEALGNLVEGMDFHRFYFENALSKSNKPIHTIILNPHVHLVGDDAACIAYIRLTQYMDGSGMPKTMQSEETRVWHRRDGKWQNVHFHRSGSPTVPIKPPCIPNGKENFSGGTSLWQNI
Sequence of Ribosomal protein S6 kinase beta-1 (Homo sapiens) (P23443 whole entry, looked up): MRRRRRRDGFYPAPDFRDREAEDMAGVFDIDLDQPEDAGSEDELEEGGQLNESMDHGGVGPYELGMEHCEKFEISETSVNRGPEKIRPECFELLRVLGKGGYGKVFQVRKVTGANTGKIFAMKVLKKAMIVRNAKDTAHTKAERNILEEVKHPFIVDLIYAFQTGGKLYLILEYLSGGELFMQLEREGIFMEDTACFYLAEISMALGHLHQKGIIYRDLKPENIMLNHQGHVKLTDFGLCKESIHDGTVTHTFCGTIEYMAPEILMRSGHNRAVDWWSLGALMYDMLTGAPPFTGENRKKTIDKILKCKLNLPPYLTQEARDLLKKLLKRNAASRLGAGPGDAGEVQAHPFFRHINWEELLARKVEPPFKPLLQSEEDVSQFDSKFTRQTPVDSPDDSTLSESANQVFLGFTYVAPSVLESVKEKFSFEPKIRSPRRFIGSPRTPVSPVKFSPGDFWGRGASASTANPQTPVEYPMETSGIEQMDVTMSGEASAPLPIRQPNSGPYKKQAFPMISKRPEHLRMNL
Sequence of MAP/microtubule affinity-regulating kinase 3 (Homo sapiens) (P27448 whole entry, looked up): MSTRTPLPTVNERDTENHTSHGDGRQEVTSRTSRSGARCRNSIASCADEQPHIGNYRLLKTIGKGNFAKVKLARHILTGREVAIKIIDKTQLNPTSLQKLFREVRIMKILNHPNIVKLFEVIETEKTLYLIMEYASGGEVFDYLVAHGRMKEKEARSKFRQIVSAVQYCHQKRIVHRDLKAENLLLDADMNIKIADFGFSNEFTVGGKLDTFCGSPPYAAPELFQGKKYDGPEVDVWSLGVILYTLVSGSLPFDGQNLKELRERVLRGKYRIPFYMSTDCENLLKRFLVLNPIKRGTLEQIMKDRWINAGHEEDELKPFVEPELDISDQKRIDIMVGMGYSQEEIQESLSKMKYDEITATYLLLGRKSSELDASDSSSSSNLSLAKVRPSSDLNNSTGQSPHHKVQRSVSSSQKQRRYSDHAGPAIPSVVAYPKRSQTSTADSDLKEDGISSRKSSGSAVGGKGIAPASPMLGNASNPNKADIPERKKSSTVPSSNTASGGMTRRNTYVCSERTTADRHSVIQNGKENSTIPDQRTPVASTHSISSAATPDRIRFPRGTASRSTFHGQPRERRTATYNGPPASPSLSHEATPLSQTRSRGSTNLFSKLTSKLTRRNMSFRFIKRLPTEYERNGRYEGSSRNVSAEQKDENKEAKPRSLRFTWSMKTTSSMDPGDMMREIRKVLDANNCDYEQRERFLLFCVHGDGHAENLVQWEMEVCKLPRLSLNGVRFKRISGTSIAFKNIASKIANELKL
Sequence of Serine/threonine-protein kinase PAK 1 (Homo sapiens) (Q13153 whole entry): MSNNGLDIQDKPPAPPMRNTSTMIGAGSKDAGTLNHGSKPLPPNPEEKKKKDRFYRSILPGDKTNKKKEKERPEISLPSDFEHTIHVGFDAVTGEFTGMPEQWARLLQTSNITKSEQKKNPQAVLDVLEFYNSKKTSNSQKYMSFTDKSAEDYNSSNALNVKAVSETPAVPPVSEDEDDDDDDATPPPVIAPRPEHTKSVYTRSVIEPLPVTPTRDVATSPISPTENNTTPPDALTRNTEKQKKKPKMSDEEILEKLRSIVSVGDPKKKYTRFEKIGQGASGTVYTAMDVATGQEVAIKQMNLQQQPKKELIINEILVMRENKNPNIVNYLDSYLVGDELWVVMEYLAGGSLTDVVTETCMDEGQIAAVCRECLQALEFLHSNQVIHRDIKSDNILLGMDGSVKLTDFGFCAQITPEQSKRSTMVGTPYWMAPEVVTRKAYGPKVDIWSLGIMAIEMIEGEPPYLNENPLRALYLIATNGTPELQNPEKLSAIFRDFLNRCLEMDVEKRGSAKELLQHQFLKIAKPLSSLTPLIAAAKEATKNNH

Row | Structure (SMILES) | residual activity [1] | residual activity [2] | residual activity [3] | inhibition [4] | residual activity [5] | residual activity [6] | residual activity [7] | residual activity [8] | residual activity [9] | residual activity [10] | residual activity [11] | residual activity [12] | residual activity [13] | residual activity [14] | residual activity [15]
1 | Cc1cc(-c2cnc(N)c3c(-c4ccc5scnc5c4)csc23)n(C)n1 | 99.7% | 108% | 101% | Active | 13.6% | 93.8% | 104% | 96.2% | 105% | 98.9% | 76.8% | 93.6% | 98.2% | 37.8% | 93.2%
2 | CC(C)S(=O)(=O)c1ccc2nccc(Nc3ccc4scnc4c3)c2c1 | 97.5% | 102% | 101% | Active | 20.7% | 96.5% | 98.1% | 94% | 95.5% | 103% | 94.8% | 108% | 106% | 102% | 83.8%
3 | CNC(=O)c1ccc2c(c1)ncn2-c1ccc(CC(=O)OC(C)(C)C)cc1 | 102% | 98.2% | 92.6% | inactive | 82.3% | 95.9% | 97.3% | 98.5% | 96.4% | 97.9% | 94.7% | 99.1% | 108% | 97.1% | 65.2%
